Laboratory results: patent publication US10961189B2, “Spiro-lactam NMDA receptor modulators and uses thereof” (Aptinyx Inc., priority 2016, dated 2021)

How the values were obtained:
NMDAR2A = target: T1, NMDAR2A (Homo sapiens, UniProt Q12879); test: [3H]MK-801 binding in NMDAR expressing HEK cell membranes (facilitation of NMDAR activation); type: biochemical; conditions: 50 μM glutamate; for EC50: read-out: B: log EC50 (converted); for Emax: 0.25 h, read-out: A: % maximal [3H]MK-801 binding relative to 1 mM glycine
T1 construct: expressed in transfected cells; host or cells: HEK cells (membrane extract)
T1 sequence (Q12879 23-1464, species assumed, other chains not shown): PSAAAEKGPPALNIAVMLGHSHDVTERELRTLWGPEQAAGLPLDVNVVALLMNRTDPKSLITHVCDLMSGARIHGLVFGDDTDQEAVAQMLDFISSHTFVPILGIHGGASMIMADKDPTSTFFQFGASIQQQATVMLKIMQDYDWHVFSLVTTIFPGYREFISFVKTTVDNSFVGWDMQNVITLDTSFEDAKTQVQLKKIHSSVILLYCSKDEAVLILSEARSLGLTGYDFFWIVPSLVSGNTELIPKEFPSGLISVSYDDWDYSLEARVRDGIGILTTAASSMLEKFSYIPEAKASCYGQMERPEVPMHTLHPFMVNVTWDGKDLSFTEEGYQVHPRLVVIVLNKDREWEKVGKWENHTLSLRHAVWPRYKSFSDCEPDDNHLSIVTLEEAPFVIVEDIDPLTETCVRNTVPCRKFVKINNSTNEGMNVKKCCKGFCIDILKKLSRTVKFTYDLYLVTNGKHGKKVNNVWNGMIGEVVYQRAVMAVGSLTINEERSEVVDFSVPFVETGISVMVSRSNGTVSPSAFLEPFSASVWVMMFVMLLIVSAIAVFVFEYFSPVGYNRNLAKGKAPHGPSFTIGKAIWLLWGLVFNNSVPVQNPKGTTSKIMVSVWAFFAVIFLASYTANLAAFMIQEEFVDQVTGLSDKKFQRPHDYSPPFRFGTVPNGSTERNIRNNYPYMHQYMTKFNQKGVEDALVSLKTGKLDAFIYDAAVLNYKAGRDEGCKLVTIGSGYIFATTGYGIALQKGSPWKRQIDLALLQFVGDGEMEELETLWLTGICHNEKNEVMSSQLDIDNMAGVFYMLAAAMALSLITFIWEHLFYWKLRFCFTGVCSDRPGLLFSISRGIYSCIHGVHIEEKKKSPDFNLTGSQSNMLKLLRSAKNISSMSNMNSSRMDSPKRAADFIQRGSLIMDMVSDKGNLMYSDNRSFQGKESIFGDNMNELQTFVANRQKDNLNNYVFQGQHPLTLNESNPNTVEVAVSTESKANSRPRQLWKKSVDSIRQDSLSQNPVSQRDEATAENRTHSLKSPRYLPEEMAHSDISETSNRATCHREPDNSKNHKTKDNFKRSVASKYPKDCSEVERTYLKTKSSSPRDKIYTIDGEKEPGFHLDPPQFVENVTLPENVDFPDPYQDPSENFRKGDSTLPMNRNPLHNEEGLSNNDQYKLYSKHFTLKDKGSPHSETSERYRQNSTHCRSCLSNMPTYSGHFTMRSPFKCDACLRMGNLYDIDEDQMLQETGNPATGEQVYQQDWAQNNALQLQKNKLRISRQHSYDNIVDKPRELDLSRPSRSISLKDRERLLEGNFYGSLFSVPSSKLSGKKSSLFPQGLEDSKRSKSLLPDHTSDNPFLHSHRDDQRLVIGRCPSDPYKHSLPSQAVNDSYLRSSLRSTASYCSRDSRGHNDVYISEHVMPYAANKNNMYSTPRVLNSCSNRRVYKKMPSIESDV
Method: (§1) Assays were conducted as described by Moskal et al., “GLYX-13: a monoclonal antibody-derived peptide that acts as an N-methyl-D-aspartate receptor modulator,” Neuropharmacology, 49, 1077-87, 2005. These studies were designed to determine if the test compounds act to facilitate NMDAR activation in NMDAR2A, NMDAR2B, NMDAR2C or NMDAR2D expressing HEK cell membranes as measured by increases in [^3H]MK-801 binding.
(§2) In the assay, 300 μg of NMDAR expressing HEK cell membrane extract protein was preincubated for 15 minutes at 25° C. in the presence of saturating concentrations of glutamate (50 μM) and varying concentrations of test compound (1×10^15M−1×10^−7M), or 1 mM glycine. Following the addition of 0.3 μCi of [^3H]MK-801 (22.5 Ci/mmol), reactions were again incubated for 15 minutes at 25° C. (nonequilibrium conditions). Bound and free [^3H]MK-801 were separated via rapid filtration using a Brandel apparatus.
(§3) In analyzing the data, the DPM (disintegrations per minute) of [^3H]MK-801 remaining on the filter were measured for each concentration of test compound or for 1 mM glycine. The DPM values for each concentration of a ligand (N=2) were averaged. The baseline value was determined from the best fit curve of the DPM values modeled using the GraphPad program and the log(agonist) vs. response (three parameters) algorithm was then subtracted from all points in the dataset. The % maximal [^3H]MK-801 binding was then calculated relative to that of 1 mM glycine: all baseline subtracted DPM values were divided by the average value for 1 mM glycine. The EC50 and % maximal activity were then obtained from the best fit curve of the % maximal [^3H]MK-801 binding data modelled using the GraphPad program and the log(agonist) vs. response (three parameters) algorithm.
(§4) The tables below summarize the results for the wild type NMDAR agonists NMDAR2A, NMDAR2B, NMDAR2C, and NMDAR2D, and whether the compound is not an agonist (−), is an agonist (+), or is a strong agonist (++), where column A is based on the % maximal [^3H]MK-801 binding relative to 1 mM glycine (−=0; <100%=+; and >100%=++); and column B is based on log EC50 values (0=−; ≥1×10^−9 M (e.g., −8)=+; and <1×10^−9 M (e.g., −10)=++).

NMDAR2B = target: T2, NMDAR2B (Homo sapiens, UniProt Q13224); test: as above; type: biochemical; conditions: 50 μM glutamate; for EC50: read-out: B: log EC50 (converted); for Emax: 0.25 h, read-out: A: % maximal [3H]MK-801 binding relative to 1 mM glycine
T2 construct: expressed in transfected cells; host or cells: HEK cells (membrane extract)
T2 sequence (Q13224 27-1484, species assumed, other chains not shown): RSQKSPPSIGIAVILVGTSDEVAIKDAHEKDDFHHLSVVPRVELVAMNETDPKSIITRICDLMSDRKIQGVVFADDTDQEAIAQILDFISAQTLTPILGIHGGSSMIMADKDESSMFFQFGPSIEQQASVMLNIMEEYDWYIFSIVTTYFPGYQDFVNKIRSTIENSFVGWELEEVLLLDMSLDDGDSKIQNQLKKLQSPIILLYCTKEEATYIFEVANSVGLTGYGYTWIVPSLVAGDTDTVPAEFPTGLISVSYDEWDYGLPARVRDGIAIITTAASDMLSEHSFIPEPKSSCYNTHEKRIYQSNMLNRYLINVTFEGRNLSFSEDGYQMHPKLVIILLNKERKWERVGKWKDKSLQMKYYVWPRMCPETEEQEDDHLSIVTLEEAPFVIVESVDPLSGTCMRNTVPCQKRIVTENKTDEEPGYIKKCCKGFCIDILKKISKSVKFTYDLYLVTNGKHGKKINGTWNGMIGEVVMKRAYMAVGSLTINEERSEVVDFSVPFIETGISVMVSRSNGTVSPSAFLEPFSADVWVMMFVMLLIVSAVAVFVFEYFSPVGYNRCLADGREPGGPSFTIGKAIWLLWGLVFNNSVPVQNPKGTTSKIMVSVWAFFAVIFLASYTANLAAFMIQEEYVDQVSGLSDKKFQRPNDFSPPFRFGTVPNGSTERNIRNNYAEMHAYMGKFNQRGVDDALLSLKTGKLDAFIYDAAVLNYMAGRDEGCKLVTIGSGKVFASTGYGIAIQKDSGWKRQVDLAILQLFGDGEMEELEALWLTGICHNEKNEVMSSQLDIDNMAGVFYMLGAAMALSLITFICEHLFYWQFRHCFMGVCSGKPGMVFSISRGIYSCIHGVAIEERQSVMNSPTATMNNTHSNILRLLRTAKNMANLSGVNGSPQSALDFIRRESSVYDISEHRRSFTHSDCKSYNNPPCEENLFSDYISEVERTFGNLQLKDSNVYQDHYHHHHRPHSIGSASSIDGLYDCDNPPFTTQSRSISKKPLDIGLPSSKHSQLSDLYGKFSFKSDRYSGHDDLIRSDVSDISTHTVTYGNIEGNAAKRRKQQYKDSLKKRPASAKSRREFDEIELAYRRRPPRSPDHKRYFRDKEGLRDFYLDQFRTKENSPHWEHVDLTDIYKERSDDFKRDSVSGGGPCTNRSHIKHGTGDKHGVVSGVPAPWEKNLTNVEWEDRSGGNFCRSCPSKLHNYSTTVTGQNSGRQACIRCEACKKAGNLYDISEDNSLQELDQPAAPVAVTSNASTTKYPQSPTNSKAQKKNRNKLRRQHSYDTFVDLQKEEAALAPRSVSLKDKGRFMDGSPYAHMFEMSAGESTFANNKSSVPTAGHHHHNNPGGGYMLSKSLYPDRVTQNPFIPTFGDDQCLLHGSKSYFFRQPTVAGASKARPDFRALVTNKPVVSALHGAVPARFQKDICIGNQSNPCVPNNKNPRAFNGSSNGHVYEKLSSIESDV
Method: as §1, §2, §3, §4

Sprague Dawley rats [1] = test: Porsolt forced swim test; type: in vivo, rat; parameters: key to Significance vs. vehicle: Yes: statistically significant (p<=0.05) from vehicle at dose level shown; No: not statistically significant from vehicle
Method: A non-clinical in vivo pharmacology study (Porsolt assay) was performed to measure antidepressant-like effects. A negative control (0.5% sodium carboxymethyl cellulose in 0.9% sterile saline vehicle) and a positive control (fluoxetine) are shown for comparison against test compound. The study allowed for the evaluation of the effects of each compound on the Porsolt forced swim test as assessed by the rats' response (reduced floating time) during a 5-minute swimming test.
(§5) Male 2-3 month old Sprague Dawley rats were used (Harlan, Indianapolis, Ind.). Rats were housed in Lucite cages with aspen wood chip bedding, maintained on a 12:12 light:dark cycle (lights on at 5 AM), and given ad libitum access to Purina lab chow (USA) and tap water throughout the study.
The Porsolt forced swim test adapted for use in rats was performed as described by Burgdorf et al., (The long-lasting antidepressant effects of rapastinel (GLYX-13) are associated with a metaplasticity process in the medial prefrontal cortex and hippocampus. Neuroscience 308:202-211, 2015). Animals were placed in a 46 cm tall×20 cm in diameter clear glass tube filled to 30 cm with tap water (23±1° C.) for 15 min on the first day (habituation) and 5 min on the subsequent test day. Positive control fluoxetine was dosed 3 times (24 h, 5 h and 1 h) prior to testing. Animals were tested 1 h or 24 h post-dosing with the test compounds or vehicle. Animals received a 15 min habituation session 1 day before the 5 min test. A subset of compounds tested at 1 h post-dosing were retested at 1 wk post-dosing in the same sets of animals. Water was changed after every other animal. Animals were videotaped, and floating time as defined as the minimal amount of effort required to keep the animals head above water was scored offline by a blinded experimenter with high inter-rater reliability (Pearson's r>0.9).
Each compound tested at dose level shown. Significance vs. vehicle group for each experiment is marked. […] A compound marked “No” was not statistically significant from vehicle. Data was averaged for test compound and vehicle groups (N approximately 8 per group) and the percent reduction in floating for group treated with test compound relative to group treated with vehicle is shown.

[2] = oral pharmacokinetics (plasma, brain, CSF); type: in vivo, Sprague Dawley rats; conditions: rat, per os 10 mg/kg; for AUC(0-t) / bioavailability / Tmax / Cmax: Sprague-Dawley, plasma, po, 10 mg/kg; for Tmax: normal saline (* in 5% NMP, 5% Solutol HS, 90% normal saline), read-out: Tmax; for Cmax: read-out: Cmax
Method: In another experiment, Sprague Dawley rats were dosed per os using a normal saline formulation containing 10 mg/kg of the compounds identified in the table below (except for the compounds marked with an asterisk (“*”) that were delivered in 5% NMP, 5% Solutol® HS and 90% normal saline formulation). Plasma, brain, and CSF samples were analyzed at various time points over a 24 hour period.

IV pharmacokinetics = type: in vivo, Sprague Dawley rats; conditions: rat, normal saline (* in 5% NMP, 5% Solutol HS, 90% normal saline); for AUC(0-t) / half-life / C0 / Vd: Sprague-Dawley, in vivo, iv, 2 mg/kg; for C0: read-out: C0; for Vd: read-out: Vss; for CI: intravenous 2 mg/kg
From the text: The table below summarizes the results of the IV pharmacokinetics.

Sprague Dawley rats [3] = test: Bennett model of mechanical analgesia (sciatic nerve chronic constriction, paw withdrawal threshold); type: in vivo, rat; conditions: 150 mg/kg PO, example gabapentin control value;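 note: log paw withdrawal threshold scaled from vehicle group mean (0%) to naive 15 g value (100%)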
Method: The Bennett model of mechanical analgesia is used to assess the analgesic effects of compounds as measured by paw withdrawal threshold. Bennett GJ, Xie YK, “A peripheral mononeuropathy in rat that produces disorders of pain sensation like those seen in man,” Pain 33:87-107, 1988. […] Vehicle animals receive the surgery and then receive vehicle rather than test compound. Animals were tested 1 hr, 24 h and 1 wk post-test compound or vehicle administration.
as §5, with “used. Harlan was the supplier for all studies.” for “used (Harlan, Indianapolis, Ind.).”
Rats were anesthetized using inhaled isoflurane (2.5%). Sciatic nerve chronic constriction nerve injury surgery was performed as previously described (Bennett and Xie, 1988). An incision (˜1.5 cm in length) was made with a scalpel blade dorsally through skin on the right hind limb, parallel and posterior to femur. Using a small pointed hemostat, the biceps femoris and gluteus superficialis muscles were separated. Using curved blunt forceps, the common sciatic nerve was isolated and exposed. For the mechanical analgesia studies, the whole sciatic nerve was ligated. Using hemostats/forceps and chromic gut (5-0), the nerve was loosely ligated with a square knot; 3 ligatures, 1 mm apart were placed on the nerve. […] Testing occurred approximately 2 weeks post-surgery.
During testing, rats were acclimated to the surface of a suspended wire mesh grid (1 cm×1 cm, with the wire being 0.3 cm in diameter) for 15-20 min. Starting from the smallest, each Von Frey filament was pressed perpendicularly to the plantar surface of the affected (ipsilateral) hind paw until slightly bent and then held for 6 second. If an obvious hind paw withdrawal or a flinching behavior immediately after the withdrawal of the filament was not observed, the next larger filament was used in the same manner. In case of a response, a lower filament was used. This was repeated until six responses were collected.
For all studies, animals were baselined prior to study start to test for allodynia (defined as a paw withdrawal threshold under 5). A subset of animals was tested with gabapentin (150 mg/kg, PO) to ensure at least 50% analgesia. Once it was confirmed animals were ready for study initiation, animals were balanced across groups. All study investigators were blind to treatment conditions. Animals were dosed with 0.1, 1 or 10 mg/kg of test compound via oral gavage (PO), control sets of animals were dosed with gabapentin (150 mg/kg, PO) or vehicle (0.5% Na-CMC in 0.9% sterile saline, PO). Testing occurred 1 h post-dosing with animals retested 24 hrs and 1 week post-dosing. The percent analgesia calculations for each animal were made using the following equation: % analgesia=[(log(x)−y)/((log (z)−y)]*100, where x=the paw withdrawal threshold for the drug-treated animal in grams, y=the average of the log(x) values for the vehicle treated group, and z=the paw withdrawal threshold for naïve animals in grams (historical value of 15 used).
The results are shown in the table below where the percentage of analgesia is measured at 1 hour, 24 hours, and 1 week after compound administration. Since each study had its own gabapentin control group, an example gabapentin control value is shown.

[4] = 20 mg/kg, dosed 3 times (24 h, 5 h and 1 h) prior to testing, 1 h post-dose

NC(=O)C(CO)N1CC2(CCCCC2)C1=O (single isomer, unassigned) [AS, 3-hydroxy-2-(l-oxo-2-azaspiro[3.5]nonan-2-yl)propanamide] showed an EC50 (NMDAR2A) of less than 1 nM, an Emax (NMDAR2A) of less than 100% and an EC50 (NMDAR2B) of less than 1 nM. For the same compound, the Emax (NMDAR2B) was less than 100%, the “% reduction in float time” value (Sprague Dawley rats [1]; 0.1 mg/kg, 1 wk post-dose) was 32.0% and the Significance vs. vehicle (Sprague Dawley rats [1]; 0.1 mg/kg, 1 wk post-dose) was “No”. The “% reduction in float time” value (Sprague Dawley rats [1]; 0.1 mg/kg, 1 h post-dose) was 82.3% and the Significance vs. vehicle (Sprague Dawley rats [1]; 0.1 mg/kg, 1 h post-dose) was “Yes (statistically significant (p<=0.05) from vehicle at dose level shown)”.

For NC(=O)C(CO)N1CC2(CCCCC2)C1=O (single isomer, unassigned) [AT, 3-hydroxy-2-(l-oxo-2-azaspiro[3.5]nonan-2-yl)propanamide], the “A: % maximal [3H]MK-801 binding relative to 1 mM glycine” value (NMDAR2A) was “+ (<100%=+)”, the EC50 (NMDAR2A) was less than 1 nM and the “A: % maximal [3H]MK-801 binding relative to 1 mM glycine” value (NMDAR2B) was “+ (<100%=+)”. The EC50 (NMDAR2B) was less than 1 nM, the “% reduction in float time” value (Sprague Dawley rats [1]; 0.1 mg/kg, 1 wk post-dose) was 55.6% and the Significance vs. vehicle (Sprague Dawley rats [1]; 0.1 mg/kg, 1 wk post-dose) was “Yes (statistically significant (p<=0.05) from vehicle at dose level shown)”. For the same compound, the “% reduction in float time” value (Sprague Dawley rats [1]; 0.1 mg/kg, 1 h post-dose) was 63.4%, the Significance vs. vehicle (Sprague Dawley rats [1]; 0.1 mg/kg, 1 h post-dose) was “Yes (statistically significant (p<=0.05) from vehicle at dose level shown)” and the AUC(0-t) [2] was 8340 ng·h/mL. The bioavailability [2] was 80%, the Tmax [2] was 15 min and the Cmax [2] was 6520 ng/mL. The “CSF Cmax” value [2] was 1758 ng/mL, the “Brain Cmax” value [2] was 120 ng/mL and the AUC(0-t) (IV pharmacokinetics) was 2090 ng·h/mL. It also gave a half-life (IV pharmacokinetics) of 143 min, a C0 (IV pharmacokinetics) of 2760 ng/mL and a Vd (IV pharmacokinetics) of 1.14 L/kg. The CI (IV pharmacokinetics) was 15.94 mL/min/kg.

For CC1CCC2(CC1)CN(C(CCC(N)=O)C(N)=O)C2=O (single isomer, unassigned) [BF, 2-(7-methyl-1-oxo-2-azaspiro[3.5]nonan-2-yl)pentanediamide], the “A: % maximal [3H]MK-801 binding relative to 1 mM glycine” value (NMDAR2A) was “+ (<100%=+)”, the EC50 (NMDAR2A) was less than 1 nM and the “A: % maximal [3H]MK-801 binding relative to 1 mM glycine” value (NMDAR2B) was “+ (<100%=+)”. The EC50 (NMDAR2B) was less than 1 nM, the “% reduction in float time” value (Sprague Dawley rats [1]; 0.1 mg/kg, 1 h post-dose) was 84.4% and the Significance vs. vehicle (Sprague Dawley rats [1]; 0.1 mg/kg, 1 h post-dose) was “Yes (statistically significant (p<=0.05) from vehicle at dose level shown)”. For the same compound, the AUC(0-t) [2] was 5290 ng·h/mL, the bioavailability [2] was 100% and the Tmax [2] was 30 min. The Cmax [2] was 3020 ng/mL, the “CSF Cmax” value [2] was 56.6 ng/mL and the “Brain Cmax” value [2] was 61.2 ng/mL. The AUC(0-t) (IV pharmacokinetics) was 973 ng·h/mL, the half-life (IV pharmacokinetics) was 90.6 min and the C0 (IV pharmacokinetics) was 2220 ng/mL. The Vd (IV pharmacokinetics) was 1.52 L/kg and the CI (IV pharmacokinetics) was 34.13 mL/min/kg.

In the case of C[C@@H](O)[C@@H](C(N)=O)N1CC2(CCCCC2)C1=O [Compound AA, (2S,3R)-3-hydroxy-2-(1-oxo-2-azaspiro[3.5]nonan-2-yl)butanamide], the Emax (NMDAR2A) was 0%, the EC50 (NMDAR2B) was less than 1 nM and the Emax (NMDAR2B) was less than 100%. The “% reduction in float time” value (Sprague Dawley rats [1]; 0.1 mg/kg, 1 h post-dose) was 42.0%, the Significance vs. vehicle (Sprague Dawley rats [1]; 0.1 mg/kg, 1 h post-dose) was “Yes (statistically significant (p<=0.05) from vehicle at dose level shown)” and the “% reduction in float time” value (Sprague Dawley rats [1]; 0.1 mg/kg, 24 h post-dose) was 48.60%. The Significance vs. vehicle (Sprague Dawley rats [1]; 0.1 mg/kg, 24 h post-dose) was “Yes (statistically significant (p<=0.05) from vehicle at dose level shown)”, the AUC(0-t) [2] was 1540 ng·h/mL and the bioavailability [2] was 78%. The Tmax [2] was 19.8 min, the Cmax [2] was 1230 ng/mL and the AUC(0-t) (IV pharmacokinetics) was 397 ng·h/mL. The half-life (IV pharmacokinetics) was 35.4 min, the C0 (IV pharmacokinetics) was 608 ng/mL and the Vd (IV pharmacokinetics) was 2.23 L/kg. The CI (IV pharmacokinetics) was 84.91 mL/min/kg.

With CNCCC(Oc1ccc(C(F)(F)F)cc1)c1ccccc1 (centres unmarked) [Fluoxetine, reference compound] the “% reduction in float time” value (Sprague Dawley rats [1]; [4]) was 54% and the Significance vs. vehicle (Sprague Dawley rats [1]; [4]) was “Yes (statistically significant (p<=0.05) from vehicle at dose level shown)”.

With NCC1(CC(=O)O)CCCCC1 [Gabapentin, reference compound] the “% analgesia” value (Sprague Dawley rats [3]; 1 wk post-dosing) was 0%, the “% analgesia” value (Sprague Dawley rats [3]; 1 h post-dosing) was 72% and the “% analgesia” value (Sprague Dawley rats [3]; 1 h post-dosing, listed as gabapentin) was “at least 50%”.
